In patent US20070202158A1, “Methods Of Administering Water-Soluble Prodrugs Of Propofol For Extended Sedation” (MGI GP, Inc., priority 2003, published 2007):

Assay: Crossover study of plasma bioavailability of propofol in human volunteers after oral or intraduodenal prodrug (Table II)
Type: in vivo
Conditions: for Blood plasma concentration of propofol, Mean / Blood plasma concentration of propofol, Median: human volunteers
Excerpt: Blood plasma samples were drawn at various time points post administration and frozen until chromatographic analysis of propofol concentrations. Plasma propofol concentrations at various time points after administration are given for both routes of administration in Table II, below: […]

[1] = ID (intraduodenal) 400 mg, 0.0 hr
[2] = ID (intraduodenal) 400 mg, 0.08 hr
[3] = ID (intraduodenal) 400 mg, 0.17 hr
[4] = ID (intraduodenal) 400 mg, 0.33 hr
[5] = ID (intraduodenal) 400 mg, 0.50 hr
[6] = ID (intraduodenal) 400 mg, 0.75 hr
[7] = ID (intraduodenal) 400 mg, 1.0 hr
[8] = ID (intraduodenal) 400 mg, 1.5 hr
[9] = ID (intraduodenal) 400 mg, 2.0 hr
[10] = ID (intraduodenal) 400 mg, 4.0 hr
[11] = ID (intraduodenal) 400 mg, 6.0 hr
[12] = ID (intraduodenal) 400 mg, 9.0 hr

CC(C)c1cccc(C(C)C)c1OCOP(=O)([O-])[O-].[Na+].[Na+] [O-phosphonooxymethyl propofol disodium salt]
Blood plasma concentration of propofol, Mean [1]: 0.0 ng/mL
Blood plasma concentration of propofol, Median [1]: 0.0 ng/mL
Blood plasma concentration of propofol, Mean [2]: 194.1 ng/mL
Blood plasma concentration of propofol, Median [2]: 144.5 ng/mL
Blood plasma concentration of propofol, Mean [3]: 247.6 ng/mL
Blood plasma concentration of propofol, Median [3]: 210.9 ng/mL
Blood plasma concentration of propofol, Mean [4]: 272.0 ng/mL
Blood plasma concentration of propofol, Median [4]: 277.3 ng/mL
Blood plasma concentration of propofol, Mean [5]: 178.6 ng/mL
Blood plasma concentration of propofol, Median [5]: 211.3 ng/mL
Blood plasma concentration of propofol, Mean [6]: 76.5 ng/mL
Blood plasma concentration of propofol, Median [6]: 52.3 ng/mL
Blood plasma concentration of propofol, Mean [7]: 47.7 ng/mL
Blood plasma concentration of propofol, Median [7]: 45.3 ng/mL
Blood plasma concentration of propofol, Mean [8]: 25.4 ng/mL
Blood plasma concentration of propofol, Median [8]: 24.7 ng/mL
Blood plasma concentration of propofol, Mean [9]: 16.4 ng/mL
Blood plasma concentration of propofol, Median [9]: 14.2 ng/mL
Blood plasma concentration of propofol, Mean [10]: 5.0 ng/mL
Blood plasma concentration of propofol, Median [10]: 5.6 ng/mL
Blood plasma concentration of propofol, Mean [11]: 0.0 ng/mL
Blood plasma concentration of propofol, Median [11]: 0.0 ng/mL
Blood plasma concentration of propofol, Mean [12]: 0.0 ng/mL
Blood plasma concentration of propofol, Median [12]: 0.0 ng/mL
Blood plasma concentration of propofol, Mean (Oral 400 mg, 0.0 hr): 0.0 ng/mL
Blood plasma concentration of propofol, Median (Oral 400 mg, 0.0 hr): 0.0 ng/mL
Blood plasma concentration of propofol, Mean (Oral 400 mg, 0.08 hr): 6.6 ng/mL
Blood plasma concentration of propofol, Median (Oral 400 mg, 0.08 hr): 0.0 ng/mL
Blood plasma concentration of propofol, Mean (Oral 400 mg, 0.17 hr): 103.9 ng/mL
Blood plasma concentration of propofol, Median (Oral 400 mg, 0.17 hr): 43.6 ng/mL
Blood plasma concentration of propofol, Mean (Oral 400 mg, 0.33 hr): 197.2 ng/mL
Blood plasma concentration of propofol, Median (Oral 400 mg, 0.33 hr): 153.6 ng/mL
Blood plasma concentration of propofol, Mean (Oral 400 mg, 0.50 hr): 144.1 ng/mL
Blood plasma concentration of propofol, Median (Oral 400 mg, 0.50 hr): 151.4 ng/mL
Blood plasma concentration of propofol, Mean (Oral 400 mg, 0.75 hr): 75.0 ng/mL
Blood plasma concentration of propofol, Median (Oral 400 mg, 0.75 hr): 71.1 ng/mL
Blood plasma concentration of propofol, Mean (Oral 400 mg, 1.0 hr): 53.2 ng/mL
Blood plasma concentration of propofol, Median (Oral 400 mg, 1.0 hr): 37.6 ng/mL
Blood plasma concentration of propofol, Mean (Oral 400 mg, 1.5 hr): 32.3 ng/mL
Blood plasma concentration of propofol, Median (Oral 400 mg, 1.5 hr): 22.8 ng/mL
Blood plasma concentration of propofol, Mean (Oral 400 mg, 2.0 hr): 19.0 ng/mL
Blood plasma concentration of propofol, Median (Oral 400 mg, 2.0 hr): 18.8 ng/mL
Blood plasma concentration of propofol, Mean (Oral 400 mg, 4.0 hr): 6.2 ng/mL
Blood plasma concentration of propofol, Median (Oral 400 mg, 4.0 hr): 6.6 ng/mL
Blood plasma concentration of propofol, Mean (Oral 400 mg, 6.0 hr): 0.9 ng/mL
Blood plasma concentration of propofol, Median (Oral 400 mg, 6.0 hr): 0.0 ng/mL
Blood plasma concentration of propofol, Mean (Oral 400 mg, 9.0 hr): 0.9 ng/mL
Blood plasma concentration of propofol, Median (Oral 400 mg, 9.0 hr): 0.0 ng/mL
plasma propofol after intraduodenal instillation compared to oral (in words) (intraduodenal 400 mg, human subjects): appreciably higher levels, and at earlier timepoints
plasma propofol after oral administration (in words) (oral 400 mg, human subjects): appreciable plasma concentrations of propofol
plasma propofol concentrations above the upper limit of quantification (some values from four of the subjects, second, third and fourth timepoints, 400 mg): > 400 ng/mL
